The first series relates to 6-OHDA model rats. Kind of series: 6-OHDA rat model: stepping test, rotarod test, TH. The settings on record: 6-OHDA rats; 10 mg/kg/day for 15 days starting 17 days post-6-OHDA. (The rotarod test checks motor coordination on a turning rod.)
Description: (§1) Group allocation and outcome assessment, but not the conduct of experiments and data analysis, were performed in a blinded manner. Throughout the study, confounders were not controlled. An acclimation period of 7 days was allowed for animals to stabilize in a new environment before model induction. […] Treatment drugs were dissolved in 100 μL of water and total dose (in mg) was calculated according to individual body weight (in kg). […] An experiment was halted if body weight decreased by 20% or more after MPTP or 6-hydroxydopamine (6-OHDA) treatment.
Finally, the 6-OHDA model was prepared as previously described [21]. Under general anesthesia, all rats received unilateral injections of 8 μg 6-OHDA (Sigma Aldrich) in 4 μL saline/0.1% ascorbic acid into the right medial forebrain bundle (AP − 2.2 mm and L + 1.5 mm relative to the bregma, V − 8.0 mm from the dura) [19], with the tooth bar set at + 4.5 mm.
Motor deficits of 6-OHDA and A53T mutant α-synuclein model rats were assessed as previously described with slight modifications [27]. Briefly, both hind limbs and one forelimb were firmly fixed in the two hands of the experimenter, and the rat was lowered over a treadmill moving at rate of 18 cm/s such that the body remained stationary while the free forelimb was allowed to spontaneously touch the moving treadmill track for 10 s. All experimental sessions were video recorded to count the number of adjusting steps taken in the backward direction. The number of adjusting steps was averaged across four trials in each session.
In addition, impaired motor coordination of 6-OHDA model rats was examined using the rotarod test as previously described with slight modifications [28]. […] Before the first rotarod test, all rats were pre-trained until riding time reached 60 s at 10 rpm (B.S Technolab, Seoul, Korea). Each session consisted of two trials, and riding time was averaged to obtain pre-6-OHDA, 0d, 7d, and 15d results.
As to `C#CCN(C)[C@H](C)Cc1ccccc1` [selegiline, reference compound], the “stepping test: stepping behavior deficit of the contralateral forepaw” value is “did not improve”.

System in the next series: not listed separately
The experiment in a line: H2O2 scavenging capacity test (Amplex red/HRP). The settings on record: 10 min incubation with H2O2 at RT. The method, then: To determine the H2O2 scavenging capacity of the test compound, H2O2 concentration was measured using the modified Amplex red/horseradish peroxidase (HRP) detection method as described previously. Briefly, a H2O2 solution was incubated with the test compound for 10 min at room temperature (RT), and then the reaction solution containing 20 mM Amplex red and 200 U/mL HRP was added. The absorbance was measured at 570 nm using a microplate reader. The H2O2 scavenging capacities were compared to a blank negative control and to the known H2O2 scavenger epigallocatechin gallate (EGCG) as a positive control.
Consider “epigallocatechin-3-gallate [EGCG, reference compound]”, for which the H2O2 scavenging effect result is recorded as “dose-dependent effect of H2O2 scavenging”.

Another series addresses T1, human recombinant MAO-A (hMAO-A) (Homo sapiens, UniProt P21397).
T1 construct: purchased Sigma Aldrich
T1 sequence (P21397 1-527): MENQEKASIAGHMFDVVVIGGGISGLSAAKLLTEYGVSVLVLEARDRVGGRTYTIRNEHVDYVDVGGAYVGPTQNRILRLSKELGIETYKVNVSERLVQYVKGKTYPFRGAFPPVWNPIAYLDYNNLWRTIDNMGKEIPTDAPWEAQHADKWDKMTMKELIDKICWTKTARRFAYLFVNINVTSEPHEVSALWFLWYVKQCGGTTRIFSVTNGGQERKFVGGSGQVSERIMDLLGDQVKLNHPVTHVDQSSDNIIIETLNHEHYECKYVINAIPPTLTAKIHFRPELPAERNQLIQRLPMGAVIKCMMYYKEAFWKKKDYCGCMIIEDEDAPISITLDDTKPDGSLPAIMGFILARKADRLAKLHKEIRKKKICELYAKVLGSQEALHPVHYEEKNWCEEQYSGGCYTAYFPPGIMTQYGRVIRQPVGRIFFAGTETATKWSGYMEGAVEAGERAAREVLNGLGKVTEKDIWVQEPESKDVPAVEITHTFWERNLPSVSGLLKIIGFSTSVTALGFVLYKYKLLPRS
Assay: not given
The settings on record: ref Park, JH. et al. Science Advances. 5(3), eaav0136 (2019), read-out: Inhibition (IC50) MAO-A; cited from earlier work.
Turning to `C[C@H](NCc1ccc(-c2ccccc2Cl)cc1)C(N)=O` [Compound 18e], the concentration for half-maximal inhibition (IC50) is over 100 µM.

Turning to `C[C@H](NCc1ccc(-c2ccccc2)cc1)C(N)=O` [Compound 18a], the IC50 is over 100 µM.

As for `C[C@H](NCc1ccc(-c2ccc(F)cc2)cc1)C(N)=O` [Compound 18d], the 50% inhibitory concentration (IC50) is over 100 µM.

For `C[C@H](NCc1ccc(-c2ccccc2F)cc1)C(N)=O` [Compound 18b], the IC50 was over 100 µM.

In the case of `C[C@H](NCc1ccc(-c2cccc(OC(F)(F)F)c2)cc1)C(N)=O` [Compound 18k], the concentration for half-maximal inhibition (IC50) was over 100 µM.

Take `C[C@H](NCc1ccc(-c2cccc(C(F)(F)F)c2)cc1)C(N)=O` [Compound 18i]: the half-maximal inhibitory concentration (IC50) was over 100 µM.

As to `C[C@H](NCc1ccc(-c2cccc(Cl)c2)cc1)C(N)=O` [Compound 18f], the IC50 was over 100 µM.

For the next series, the system named is MPTP-induced PD mouse model. The experiment in a line: MPTP mouse model: TH (DAB) and Nissl staining of SNpc and striatum. The following applies: MPTP mice; long-term treatment, 29 days before MPTP and one more day after, 10 mg/kg/day oral; 10 mg/kg/day.
Description: as §1
The MPTP model was established using the acute regimen of four intraperitoneal (i.p.) injections of MPTP-HCl (M0896, Sigma Aldrich, 2 mg/mL in saline, 20 mg/kg for one injection) at 2-h intervals. All MPTP use and safety precautions were strictly followed as described [18].
Coronal sections for striatum and SNpc were prepared at 30-μm thickness and immunostained using a DAB staining kit (TL-060-QHD, Thermo, MA, USA). […] After washing in PBS 3 times, sections were incubated in Primary Antibody Amplifier Quanto (TA-060-QPB, Thermo) for 5 min, washed again in PBS, incubated in HRP Polymer Quanto for 1 h, washed 4 times in PBS, and dipped for 30 s in a 1:10 mixture of DAB + chromogen and DAB + substrate buffer (K3468, Dako, Denmark). Finally, sections were washed, immersed in mounting medium, and dried.
Every 6th section including the SN was stained with anti-TH and the number of TH-positive neurons counted under low magnification (× 10) from the rostral tip of the SNpc to the caudal end of the substantia nigra pars reticulate (SNpr). […] The total number of neurons per section was estimated according to the optical fractionator formula. The total number of SNpc neurons in a hemisphere was then obtained by multiplying the number counted using Stereo Investigator 11 by the slice interval (six).
Other 30-μm-thick coronal sections from the SNpc were Nissl stained to assess viable cell number. Briefly, slices were stained with 0.1% cresyl violet solution for 3 min, rinsed with distilled water, and placed in a chamber filled with 70% ethanol for 1 min. […] A series of bright field images were obtained using an Olympus microscope. The slices were classified according to AP coordinates and Nissl-positive neurons counted using the counting tool of ImageJ (NIH, MD, USA).
Regarding `C#CCN(C)[C@H](C)Cc1ccccc1` [selegiline, reference compound], the “loss of TH-positive cells in the SNpc” value is given as “non-significant increasing tendency”.

System in the next series: not given
Assay: not given
Settings: not given
Molecule `C[C@H](NCc1ccc(-c2ccccc2Cl)cc1)C(N)=O` [Compound 18e] came in with a melting point of 216 to 220 °C.

For the molecule `C[C@H](NCc1ccc(-c2ccccc2)cc1)C(N)=O` [Compound 18a], the melting point lay in the range of 252 to 256 °C.

For `C[C@H](NCc1ccc(-c2ccc(F)cc2)cc1)C(N)=O` [Compound 18d], the melting point is 162 to 164 °C.

In turn, `C[C@H](NCc1ccc(-c2ccccc2F)cc1)C(N)=O` [Compound 18b] came in with a melting point of 131 to 135 °C.

As to `C[C@H](NCc1ccc(-c2cccc(OC(F)(F)F)c2)cc1)C(N)=O` [Compound 18k], the melting point fell in the range of 209 to 212 °C.

In turn, `C[C@H](NCc1ccc(-c2cccc(C(F)(F)F)c2)cc1)C(N)=O` [Compound 18i] gave a melting point of 215 to 217 °C.

Molecule `C[C@H](NCc1ccc(-c2cccc(Cl)c2)cc1)C(N)=O` [Compound 18f] registered a melting point of 220 to 223 °C.

The target in another series is T2, human recombinant MAO-B (hMAO-B) (Homo sapiens, UniProt P27338).
T2 construct: purchased Sigma Aldrich
T2 sequence (P27338 1-520): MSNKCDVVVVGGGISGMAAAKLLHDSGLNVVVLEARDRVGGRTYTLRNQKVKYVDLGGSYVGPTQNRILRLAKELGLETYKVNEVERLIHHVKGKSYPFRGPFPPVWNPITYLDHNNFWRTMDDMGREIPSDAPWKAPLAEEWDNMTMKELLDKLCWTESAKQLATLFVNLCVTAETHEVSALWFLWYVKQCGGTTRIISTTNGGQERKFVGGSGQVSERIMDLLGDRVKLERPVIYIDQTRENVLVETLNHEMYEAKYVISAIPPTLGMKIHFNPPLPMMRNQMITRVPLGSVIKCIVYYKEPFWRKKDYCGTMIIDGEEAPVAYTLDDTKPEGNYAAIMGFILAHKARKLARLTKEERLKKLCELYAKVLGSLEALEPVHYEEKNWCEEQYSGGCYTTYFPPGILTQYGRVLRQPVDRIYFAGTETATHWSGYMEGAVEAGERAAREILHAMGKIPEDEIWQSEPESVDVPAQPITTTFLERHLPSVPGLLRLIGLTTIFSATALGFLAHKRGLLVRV
Assay: not given
The settings on record: hMAO-B; ref Park, JH. et al. Science Advances. 5(3), eaav0136 (2019); read-out: Inhibition (IC50) MAO-B; cited from earlier work.
As for `C[C@H](NCc1ccc(-c2ccccc2Cl)cc1)C(N)=O` [Compound 18e], the concentration for half-maximal inhibition (IC50) was over 10 µM.

As to `C[C@H](NCc1ccc(-c2ccccc2)cc1)C(N)=O` [Compound 18a], the IC50 is over 10 µM.

Take `C[C@H](NCc1ccc(-c2cccc(C(F)(F)F)c2)cc1)C(N)=O` [Compound 18i]: the IC50 was 0.316 ± 0.006 µM.

In the case of `C[C@H](NCc1ccc(-c2cccc(Cl)c2)cc1)C(N)=O` [Compound 18f], the 50% inhibitory concentration (IC50) is 0.242 ± 0.008 µM.

Still in this series, the particulars now being: selectivity for MAO-B isoform; ref Park, JH. et al. Science Advances. 5(3), eaav0136 (2019); cited from earlier work.
As to `C[C@H](NCc1ccc(-c2ccc(F)cc2)cc1)C(N)=O` [Compound 18d], the “SI (selectivity index), IC50(MAO-A)/IC50(MAO-B)” value (shortened to “SI (selectivity index)”) is over 23.

Regarding `C[C@H](NCc1ccc(-c2ccccc2F)cc1)C(N)=O` [Compound 18b], the “SI (selectivity index)” value is listed as over 12.

Turning to `C[C@H](NCc1ccc(-c2cccc(OC(F)(F)F)c2)cc1)C(N)=O` [Compound 18k], the “SI (selectivity index)” value is over 463.

Regarding `C[C@H](NCc1ccc(-c2cccc(C(F)(F)F)c2)cc1)C(N)=O` [Compound 18i], the “SI (selectivity index)” value is given as over 316.

As to `C[C@H](NCc1ccc(-c2cccc(Cl)c2)cc1)C(N)=O` [Compound 18f], the “SI (selectivity index)” value is on record as over 413.

Another series relates to MPTP-induced PD mouse model. Kind of series: MPTP mouse model: vertical grid test and coat hanger test. The settings on record: MPTP mice; long-term (30-day) treatment, 10 mg/kg/day oral. The class given is in vivo.
Description: Group allocation and outcome assessment, but not the conduct of experiments and data analysis, were performed in a blinded manner. Throughout the study, confounders were not controlled. An acclimation period of 7 days was allowed for animals to stabilize in a new environment before model induction. […] Treatment drugs were dissolved in 100 μL of water and total dose (in mg) was calculated according to individual body weight (in kg).
The MPTP model was established using the acute regimen of four intraperitoneal (i.p.) injections of MPTP-HCl (M0896, Sigma Aldrich, 2 mg/mL in saline, 20 mg/kg for one injection) at 2-h intervals.
Motor deficits of the MPTP-induced PD mouse model were assessed using the vertical grid test as described in the previous study [23]. Briefly, after 2 days of habituation to the testing apparatus, individual mice were gently placed 3 cm from the top, facing upward, and allowed to turn around and climb down. We also performed a coat hanger test as described [24–26]. Briefly, a mouse was gently hung on the middle of a coat hanger and allowed to ascend to the top. Performance was graded as follows: 0, falling off the hanger within 20 s; 1, moving to the side-bar of the hanger; 2, reaching the side-bar of the hanger; 3, climbing the side-bar of the hanger; 4, moving to the top of the hanger; 5, climbing and reaching the safe zone. The test was performed twice and each trial lasted a maximum of 3 min.
For the molecule `C#CCN(C)[C@H](C)Cc1ccccc1` [selegiline, reference compound], the “vertical grid test: time to turn” value was “reduced” and the “vertical grid test: total time” value is “reduced”.

As a reminder, the IC50 is the concentration that gives 50% inhibition. In general, melting point refers to the temperature, or range, at which the solid turns liquid.

(Values after paper PMC8608967, “KDS2010, a Newly Developed Reversible MAO-B Inhibitor, as an Effective Therapeutic Candidate for Parkinson’s Disease” (Neurotherapeutics, 2021).)
